From patent publication US20250353859A1, “COMPOUNDS AS CCR6 INHIBITORS” (Hoffmann-La Roche Inc., priority 2023, published 2025)

What was measured:
human CCR6 [1] = target: T1, human CCR6 (Homo sapiens, UniProt P51684); test: Human CCR6-CRE reporter assay; type: cell-based; design: The second construct contained the open reading frame of human CCR6 in the pUNO1 backbone; host or cells: 293FT cells (transient transfection with TransIT-293)
T1 sequence (P51684 1-374): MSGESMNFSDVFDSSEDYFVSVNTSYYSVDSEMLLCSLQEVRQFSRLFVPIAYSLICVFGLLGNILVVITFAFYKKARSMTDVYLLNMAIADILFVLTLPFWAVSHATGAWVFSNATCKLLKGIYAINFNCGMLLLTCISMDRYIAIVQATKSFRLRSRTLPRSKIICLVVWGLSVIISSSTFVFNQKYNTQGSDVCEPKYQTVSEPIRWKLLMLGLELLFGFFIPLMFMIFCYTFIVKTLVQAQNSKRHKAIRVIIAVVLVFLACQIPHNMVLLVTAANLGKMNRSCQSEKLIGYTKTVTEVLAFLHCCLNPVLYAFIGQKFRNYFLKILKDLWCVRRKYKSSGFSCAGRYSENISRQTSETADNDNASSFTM
Experimental: 293FT cells were transfected with 2 constructs using TransIT-293 (Mirus). The first construct (pGL4.29, Promega) expressed the luciferase reporter gene luc2P in response to the binding of cAMP-induced CREB to the CREelement in its promoter. The second construct contained the open reading frame of human CCR6 in the pUNO1 backbone under the control of an enhanced CMV promoter(InVivoGen).48 h after transfection, cells were harvested and diluted to 750,000 cells/ml in culture medium (DMEM, 10% FBS, 1× pen/strep(Gibco 15140)). Compounds were 2.5-fold serially diluted in DMSO. Further dilutions were made in assay medium (DMEM, 10% FBS, 1× pen/strep, 6 μM Forskolin, 6 nM CCL20). 4 μl of the compound solution was added to a white MW384 plate, followed by […] of the cell suspension. Final DMSO concentration in the assay was 0.1%. The MW384 plate was placed in an incubator at 37° C., 5% CO2 for 5 h. Luciferase activity was determined by addition of 24 μl of a 2.5× diluted BriteLite luciferase solution(Perkin Elmer), followed by luminescence measurement using a VICTOR Plate reader (Perkin Elmer). […] The relative Log IC50 was determined with GraphPad Prism 9 using a four-parameter dose-response model.

human CCR6 [2] = target: T1, human CCR6; test: CHO-K1 CCR6 chemotaxis assay towards CCL20; type: cell-based; settings: CHO-K1 cells overexpressing human CCR6; 100 ng/ml CCL20, 4 h; relative Log IC50
Description: Cells overexpressing human CCR6 were used in the chemotaxis assay (DiscoverX, cAMP Hunter™ CHO-K1 CCR6 Gi Cell Line). Growth medium of these cells consisted of DMEM/F12, non-essential Amino acids (1×NEAA, Gibco 11140050), 10% FBS and 1× pen/strep (Gibco 15140). For the chemotaxis assay, Corning Transwell plates were used with a pore size of 8 m (Corning 351164). Cells were harvested using trypsin and diluted to 4*10^6 cells/ml in chemotaxis medium (DMEM, 0.25% BSA, pen/strep). Compounds were four-fold serially diluted in DMSO. Further dilutions were made in chemotaxis medium. Cells were incubated with test compounds for 30 min at 37° C. prior to initiation of the assay (2*10^6 cells/ml). Final DMSO concentration in the assay was 0.2%. Wells of the Transwell plates were filled with 200 μl chemotaxis medium containing 100 ng/ml CCL20 (R&D systems 360-MP). 50 μl of the cell/compound suspension was added to the inserts of the Transwell plates (100,000 cells/insert). The Transwell plates were placed in an incubator at 37° C., 5% CO2 for 4 h. After 4 h, the number of migrated cells was quantified using CellTiter Glo (Promega). Percentage inhibition values were calculated based on the low and high signal obtained with 0.2% DMSO in chemotaxis medium without and with CCL20, respectively. The relative Log IC50 was determined with GraphPad Prism 9 using a four-parameter dose-response model.

[3] = 293FT cells transfected with human CCR6 and CRE-luciferase, Forskolin + CCL20, 5 h, relative Log IC50, read-out: CCR6-CRE reporter (converted)

## N#Cc1n[nH]c2ccc(-c3ccc(S(=O)(=O)N4CCC(Nc5ccc(OC(F)(F)F)cc5)CC4)cc3)cc12 [Example 14, 5-{4-[(4-{[4-(trifluoromethoxy)phenyl]Amino}piperidin-1-yl)sulfonyl]phenyl}-1H-indazole-3-carbonitrile]
Human CCR6 [1]; [3]
  IC50: 63.1 nM
Human CCR6 [2]
  IC50: 20 nM

## N#Cc1c[nH]c2ccc(-c3ccc(S(=O)(=O)N4CCC(Nc5ccc(OC(F)(F)F)cn5)CC4)cc3)cc12 [Example 15, 5-{4-[(4-{[5-(trifluoromethoxy)pyridin-2-yl]Amino}piperidin-1-yl)sulfonyl]phenyl}-1H-indole-3-carbonitrile]
Human CCR6 [2]
  IC50: 10 nM

## O=c1[nH]nc2ccc(-c3ccc(S(=O)(=O)N4CCC(Nc5ccc(OC(F)(F)F)cc5)CC4)cc3)cn12 [Example 23, 6-{4-[(4-{[4-(trifluoromethoxy)phenyl]Amino}piperidin-1-yl)sulfonyl]phenyl}-2H,3H-[1,2,4]triazolo[4,3-a]pyridin-3-one]
Human CCR6 [2]
  IC50: 39.8 nM

## O=c1[nH]nc2ccc(-c3ccc(S(=O)(=O)N4CCC(Nc5ccc(OC(F)(F)F)cn5)CC4)cc3)cn12 [Example 24, 6-{4-[(4-{[5-(trifluoromethoxy)pyridin-2-yl]Amino}piperidin-1-yl)sulfonyl]phenyl}-2H,3H-[1,2,4]triazolo[4,3-a]pyridin-3-one]
Human CCR6 [1]; [3]
  IC50: 79.4 nM
Human CCR6 [2]
  IC50: 31.6 nM

## N#Cc1c[nH]c2ccc(-c3ccc(S(=O)(=O)N4CCC(Nc5ccc(OC(F)F)cc5)CC4)cc3)cc12 [Example 29, 5-{4-[(4-{[4-(difluoromethoxy)phenyl]Amino}piperidin-1-yl)sulfonyl]phenyl}-1H-indole-3-carbonitrile]
Human CCR6 [2]
  IC50: 126 nM

## Cc1cc(-c2ccc(S(=O)(=O)N3CCC(Nc4ccc(SC(F)(F)F)cc4)CC3)cc2)cn2c(C(C)C)cnc12 [Example 33, 1-{4-[8-methyl-3-(propan-2-yl)imidazo[1,2-a]pyridin-6-yl]benzenesulfonyl}-N-{4-[(trifluoromethyl)sulfanyl]phenyl}piperidin-4-amine]
Human CCR6 [1]; [3]
  IC50: 100 nM
Human CCR6 [2]
  IC50: 20 nM

## Cc1cnc2ccc(-c3ccc(S(=O)(=O)[C@H]4CC[C@H](Nc5ccc(OC(F)(F)F)cc5)CC4)cc3)cn12 [Example 41, N-[trans-4-(4-{3-methylimidazo[1,2-a]pyridin-6-yl}benzenesulfonyl)cyclohexyl]-4-(trifluoromethoxy)aniline]
Human CCR6 [1]; [3]
  IC50: 158 nM
Human CCR6 [2]
  IC50: 63.1 nM

## Cc1cnc2ccc(-c3ccc(S(=O)(=O)[C@H]4CC[C@H](Nc5ccc(OC(F)(F)F)cn5)CC4)cc3)cn12 [Example 42, N-[trans-4-(4-{3-methylimidazo[1,2-a]pyridin-6-yl}benzenesulfonyl)cyclohexyl]-5-(trifluoromethoxy)pyridin-2-amine]
Human CCR6 [1]; [3]
  IC50: 158 nM
Human CCR6 [2]
  IC50: 79.4 nM

## N=S(=O)(c1ccc(-c2ccc3nccn3c2)cc1)[C@H]1CC[C@H](Nc2ccc(SC(F)(F)F)cc2)CC1 (stereo partly drawn) [Example 52, (4-{imidazo[1,2-a]pyridin-6-yl}phenyl)[trans-4-({4-[(trifluoromethyl)sulfanyl]phenyl}Amino)cyclohexyl](imino)-λ^6-sulfanone]
Human CCR6 [1]; [3]
  IC50: 158 nM

## N=S(=O)(c1ccc(-c2ccc3n[nH]c(=O)n3c2)cc1)[C@H]1CC[C@H](Nc2ccc(SC(F)(F)F)cc2)CC1 (stereo partly drawn) [Example 53, 6-(4-{[trans-4-({4-[(trifluoromethyl)sulfanyl]phenyl}Amino)cyclohexyl]sulfonimidoyl}phenyl)-2H,3H-[1,2,4]triazolo[4,3-a]pyridin-3-one]
Human CCR6 [1]; [3]
  IC50: 316 nM

## N=S(=O)(c1ccc(-c2ccc3nccn3c2)cc1)[C@H]1CC[C@H](Nc2ccc(OC(F)(F)F)cn2)CC1 (stereo partly drawn) [Example 54, (4-{imidazo[1,2-a]pyridin-6-yl}phenyl)[trans-4-{[5-(trifluoromethoxy)pyridin-2-yl]Amino}cyclohexyl](imino)-λ^6-sulfanone]
Human CCR6 [1]; [3]
  IC50: 631 nM

## CC(C)c1nnc2ccc(-c3ccc(S(=O)(=O)N4CCC(Nc5ccc(OC(F)(F)F)cn5)CC4)cc3)cn12 [Example 56, N-(1-{4-[3-(propan-2-yl)-[1,2,4]triazolo[4,3-a]pyridin-6-yl]benzenesulfonyl}piperidin-4-yl)-5-(trifluoromethoxy)pyridin-2-amine]
Human CCR6 [1]; [3]
  IC50: 31.6 nM

## NC(=O)c1cc(-c2ccc(S(=O)(=O)N3CCC(Nc4ccc(OC(F)(F)F)cn4)CC3)cc2)ccn1 [Example 58, 4-{4-[(4-{[5-(trifluoromethoxy)pyridin-2-yl]amino}piperidin-1-yl)sulfonyl]phenyl}pyridine-2-carboxamide]
Human CCR6 [1]; scaffold variant X = O, R1 = CF3, read-out: Activity in human CCR6-CRE reporter assay
  IC50: 62 nM

## Cc1nnc2ccc(-c3ccc(S(=O)(=O)N4CCC(Nc5ccc(OC(F)(F)F)cn5)CC4)cc3)cn12 [Example 60, N-[1-(4-{3-methyl-[1,2,4]triazolo[4,3-a]pyridin-6-yl}benzenesulfonyl)piperidin-4-yl]-5-(trifluoromethoxy)pyridin-2-amine]
Human CCR6 [1]; [3]
  IC50: 39.8 nM

## Cc1cc(-c2ccc(S(=O)(=O)N3CCC(Nc4ccc(SC(F)(F)F)cn4)CC3)cc2)cn2c(C(C)C)cnc12 [Example 61, N-(1-{4-[8-methyl-3-(propan-2-yl)imidazo[1,2-a]pyridin-6-yl]benzenesulfonyl}piperidin-4-yl)-5-[(trifluoromethyl)sulfanyl]pyridin-2-amine]
Human CCR6 [1]; [3]
  IC50: 63.1 nM

## O=S(=O)(c1ccc(-c2ccc3nccn3c2)cc1)N1CCC(Nc2ccc(SC(F)(F)F)cn2)CC1 [Example 62, N-[1-(4-{imidazo[1,2-a]pyridin-6-yl}benzenesulfonyl)piperidin-4-yl]-5-[(trifluoromethyl)sulfanyl]pyridin-2-amine]
Human CCR6 [1]; scaffold variant X = S, R1 = CF3, read-out: Activity in human CCR6-CRE reporter assay
  IC50: 50 nM

## CC(C)c1cnc2ccc(-c3ccc(S(=O)(=O)N4CCC(Nc5ccc(SC(F)(F)F)cn5)CC4)cc3)cn12 [Example 64, N-(1-{4-[3-(propan-2-yl)imidazo[1,2-a]pyridin-6-yl]benzenesulfonyl}piperidin-4-yl)-5-[(trifluoromethyl)sulfanyl]pyridin-2-amine]
Human CCR6 [1]; [3]
  IC50: 39.8 nM

## Cc1cc(-c2ccc(S(=O)(=O)N3CCC(Nc4cc(OC(F)(F)F)ccn4)CC3)cc2)cn2c(C(C)C)cnc12 [Example 69, N-(1-{4-[8-methyl-3-(propan-2-yl)imidazo[1,2-a]pyridin-6-yl]benzenesulfonyl}piperidin-4-yl)-4-(trifluoromethoxy)pyridin-2-amine]
Human CCR6 [1]; [3]
  IC50: 1260 nM

## CC(C)c1nnc2ccc(-c3ccc(S(=O)(=O)N4CCC(Nc5cc(OC(F)(F)F)ccn5)CC4)cc3)cn12 [Example 70, N-(1-{4-[3-(propan-2-yl)-[1,2,4]triazolo[4,3-a]pyridin-6-yl]benzenesulfonyl}piperidin-4-yl)-4-(trifluoromethoxy)pyridin-2-amine]
Human CCR6 [1]; [3]
  IC50: 3160 nM

## Cc1cc(-c2ccc(S(=O)(=O)N3CCC(Nc4cc(OC(F)(F)F)ccn4)CC3)cc2)cn2c(C(C)C)nnc12 [Example 71, N-(1-{4-[8-methyl-3-(propan-2-yl)-[1,2,4]triazolo[4,3-a]pyridin-6-yl]benzenesulfonyl}piperidin-4-yl)-4-(trifluoromethoxy)pyridin-2-amine]
Human CCR6 [1]; [3]
  IC50: 1000 nM

## O=S(=O)(c1ccc(-c2ccc3nccn3c2)cc1)[C@H]1CC[C@H](Nc2ccc(OC(F)(F)F)cn2)CC1 [Example 73, N-[trans-4-(4-{imidazo[1,2-a]pyridin-6-yl}benzenesulfonyl)cyclohexyl]-5-(trifluoromethoxy)pyridin-2-amine]
Human CCR6 [1]; [3]
  IC50: 126 nM
